Experimental data published in patent US7371766B2, “Curcumin analogs with anti-tumor and anti-angiogenic properties” (Emory University, priority 1999, dated 2008).
Where two headings read alike, the source gives them in different places.

Key:
[1] = system: NCI-H522; assay: cells; settings: Homo sapiens, NCI-H522, 48 h; for GI50: read-out: Median Growth Inhibitory Concentration (GI50); for CC50: read-out: Median Lethal Concentration (LC50)
[2] = system: SNB-75; assay: cells; settings: Homo sapiens, SNB-75, 48 h; for GI50: read-out: Median Growth Inhibitory Concentration (GI50); for CC50: read-out: Median Lethal Concentration (LC50)
[3] = system: UACC-257; assay: cells; settings: Homo sapiens, UACC-257, 48 h; for GI50: read-out: Median Growth Inhibitory Concentration (GI50); for CC50: read-out: Median Lethal Concentration (LC50)
[4] = system: SK-OV-3; assay: cells; settings: Homo sapiens, SK-OV-3, 48 h; for GI50: read-out: Median Growth Inhibitory Concentration (GI50); for CC50: read-out: Median Lethal Concentration (LC50)
[5] = system: RXF 393; assay: cells; settings: Homo sapiens, RXF 393, 48 h; for GI50: read-out: Median Growth Inhibitory Concentration (GI50); for CC50: read-out: Median Lethal Concentration (LC50)
[6] = system: SR; assay: cells; settings: Homo sapiens, 48 h; for GI50: read-out: Median Growth Inhibitory Concentration (GI50); for CC50: read-out: Median Lethal Concentration (LC50)
[7] = system: UO-31; assay: cells; settings: Homo sapiens, UO-31, 48 h; for GI50: read-out: Median Growth Inhibitory Concentration (GI50); for CC50: read-out: Median Lethal Concentration (LC50)
[8] = system: ACHN; assay: cells; settings: Homo sapiens, 48 h; for GI50: read-out: Median Growth Inhibitory Concentration (GI50); for CC50: read-out: Median Lethal Concentration (LC50)
[9] = system: SNB-19; assay: cells; settings: Homo sapiens, SNB-19, 48 h; for GI50: read-out: Median Growth Inhibitory Concentration (GI50); for CC50: read-out: Median Lethal Concentration (LC50)
[10] = system: SK-MEL-28; assay: cells; settings: Homo sapiens, SK-MEL-28, 48 h; for GI50: read-out: Median Growth Inhibitory Concentration (GI50); for CC50: read-out: Median Lethal Concentration (LC50)
[11] = system: COLO 205; assay: cells; settings: Homo sapiens, COLO 205, 48 h; for GI50: read-out: Median Growth Inhibitory Concentration (GI50); for CC50: read-out: Median Lethal Concentration (LC50)
[12] = system: HS 578T; assay: cells; settings: Homo sapiens, 48 h; for GI50: read-out: Median Growth Inhibitory Concentration (GI50); for CC50: read-out: Median Lethal Concentration (LC50)
[13] = system: EKVX; assay: cells; settings: Homo sapiens, 48 h; for GI50: read-out: Median Growth Inhibitory Concentration (GI50); for CC50: read-out: Median Lethal Concentration (LC50)
[14] = system: HCT-15; assay: cells; settings: Homo sapiens, HCT-15, 48 h; for GI50: read-out: Median Growth Inhibitory Concentration (GI50); for CC50: read-out: Median Lethal Concentration (LC50)
[15] = system: OVCAR-5; assay: cells; settings: Homo sapiens, OVCAR-5, 48 h; for GI50: read-out: Median Growth Inhibitory Concentration (GI50); for CC50: read-out: Median Lethal Concentration (LC50)
[16] = system: MOLT-4; assay: cells; settings: Homo sapiens, MOLT-4, 48 h; for GI50: read-out: Median Growth Inhibitory Concentration (GI50); for CC50: read-out: Median Lethal Concentration (LC50)
[17] = system: Sixty human tumor cell lines; assay: cells; settings: 48 h; for GI50: read-out: Median Growth Inhibitory Concentration (GI50), Mean; for CC50: read-out: Median Lethal Concentration (LC50), Mean
[18] = system: T-47D; assay: cells; settings: Homo sapiens, T47D, 48 h; for GI50: read-out: Median Growth Inhibitory Concentration (GI50); for CC50: read-out: Median Lethal Concentration (LC50)
[19] = system: MCF-7; assay: cells; settings: Homo sapiens, MCF7, 48 h; for GI50: read-out: Median Growth Inhibitory Concentration (GI50); for CC50: read-out: Median Lethal Concentration (LC50)
[20] = system: IGROV1; assay: cells; settings: Homo sapiens, IGROV-1, 48 h; for GI50: read-out: Median Growth Inhibitory Concentration (GI50); for CC50: read-out: Median Lethal Concentration (LC50)
[21] = system: SK-MEL-2; assay: cells; settings: Homo sapiens, SK-MEL-2, 48 h; for GI50: read-out: Median Growth Inhibitory Concentration (GI50); for CC50: read-out: Median Lethal Concentration (LC50)
[22] = system: RPMI-7951 human melanoma; assay: Neutral Red Assay, cell viability, RPMI-7951; settings: Homo sapiens
Protocol: RPMI-795 1, MDA-MB-231 and MDA-MB-435 cell lines were cultured in MEM-alpha medium (GIBCO-BRL, Long Island, N.Y.) containing 10% fetal bovine serum (RPMI-7951, MDA-MB-231) or 5% FBS (MDA-MB-435) at 37° C. and under 5% CO2/95% air. […] The cells were cultured in 48 well plates in all of the experiments described.
Neutral Red Assay was utilized to determine the effect of the compounds of the present invention on cell viability. Neutral Red was purchased from GIBCO-BRL (Long Island, N.Y.). Cells were plated at a concentration of 20,000 cells/well and cultured overnight. Compounds or vehicle (DMSO 0.1%) were then added and the plates were incubated for 72 hours. Supernatant from each well was either aspirated or collected and media containing Neutral Red (GIBCO-BRL, Long Island, N.Y.) at a concentration of 15 μl/ml was then added to each well. The plates were then incubated at 37° C. for 30 minutes. Next, the cells were washed with twice with PBS and alcoholic-HCl (0.5N—HCl/35% ethanol) was added to each well. The plates were then placed on a plate shaker until all residues were solubilized (pink color). The solubilized mixtures were then transferred to a 96 well plate and the absorbances were read on a micro-test plate reader at a wavelength of 570 nm.
Cell viability was determined by Neutral Red Assay.

[23] = system: SK-MEL-5; assay: cells; settings: Homo sapiens, SK-MEL-5, 48 h; for GI50: read-out: Median Growth Inhibitory Concentration (GI50)
[24] = system: A549; assay: cells; settings: Homo sapiens, A549, 48 h; for GI50: read-out: Median Growth Inhibitory Concentration (GI50); for CC50: read-out: Median Lethal Concentration (LC50)
[25] = system: SF-268; assay: cells; settings: Homo sapiens, SF-268, 48 h; for GI50: read-out: Median Growth Inhibitory Concentration (GI50); for CC50: read-out: Median Lethal Concentration (LC50)
[26] = system: TK-10; assay: cells; settings: Homo sapiens, TK-10, 48 h; for GI50: read-out: Median Growth Inhibitory Concentration (GI50); for CC50: read-out: Median Lethal Concentration (LC50)
[27] = system: SN12C; assay: cells; settings: Homo sapiens, 48 h; for GI50: read-out: Median Growth Inhibitory Concentration (GI50); for CC50: read-out: Median Lethal Concentration (LC50)
[28] = system: M14; assay: cells; settings: Homo sapiens, M14, 48 h; for GI50: read-out: Median Growth Inhibitory Concentration (GI50); for CC50: read-out: Median Lethal Concentration (LC50)
[29] = system: OVCAR-8; assay: cells; settings: Homo sapiens, OVCAR-8, 48 h; for GI50: read-out: Median Growth Inhibitory Concentration (GI50); for CC50: read-out: Median Lethal Concentration (LC50)
[30] = RPMI-7951, 72 h, read-out: Neutral Red Uptake, %
[31] = RPMI-7951, read-out: Cell Viability

## O=C1C(=Cc2ccccc2O)CCCC1=Cc1ccccc1O [EF4, 2,6Bis(2-hydroxybenzylidene)cyclohexanone]
[1]
  GI50: 2.9 µM
  CC50: > 100 µM
[2]
  GI50: 2 µM
  CC50: 21.5 µM
[3]
  GI50: 2.9 µM
  CC50: 57.8 µM
[4]
  GI50: 6.7 µM
  CC50: 63.6 µM
[5]
  GI50: 0.5 µM
  CC50: 30.8 µM
[6]
  GI50: 1.6 µM
  CC50: > 100 µM
[7]
  GI50: 1.6 µM
  CC50: 6.2 µM
[8]
  GI50: 3.3 µM
  CC50: 32.7 µM
[9]
  GI50: 3.2 µM
  CC50: 42.3 µM
[10]
  GI50: 2.9 µM
  CC50: 33.8 µM
[11]
  GI50: 2 µM
  CC50: 8.7 µM
[12]
  GI50: 5.1 µM
  CC50: > 100 µM
[13]
  GI50: 2.3 µM
  CC50: 37.2 µM
[14]
  GI50: 2.2 µM
  CC50: > 100 µM
[15]
  GI50: 2.6 µM
  CC50: 55.9 µM
[16]
  GI50: 2.2 µM
  CC50: 69.5 µM
[17]
  GI50: 2.4 µM
  CC50: 33.9 µM
[18]
  GI50: 1.7 µM
  CC50: 50.8 µM
[19]
  GI50: 2.7 µM
  CC50: 44.1 µM
[20]
  GI50: 2.9 µM
  CC50: 43.9 µM
[21]
  GI50: 2.4 µM
  CC50: 25.3 µM
[22]; [30]
  viability at 5 µM: 98%
  viability at 20 µM: 4%
[22]; [31]
  viability at 5 µM: 102%
  viability at 20 µM: 38%
[23]
  GI50: 1.6 µM
[24]
  GI50: 2.6 µM
  CC50: > 100 µM
[25]
  GI50: 3 µM
  CC50: 53.2 µM
[26]
  GI50: 3 µM
  CC50: 22.6 µM
[27]
  GI50: 2.3 µM
  CC50: 21.5 µM
[28]
  GI50: 1.9 µM
  CC50: 13.2 µM
[29]
  GI50: 2.9 µM
  CC50: > 100 µM

## CC1(/C=C/c2ccccc2O)C=Cc2ccccc2O1 (centres unmarked) [EF7]
[1]
  GI50: 16.2 µM
  CC50: > 100 µM
[2]
  GI50: 11.8 µM
  CC50: 49 µM
[3]
  GI50: 16.9 µM
  CC50: 55.2 µM
[4]
  GI50: 16.6 µM
  CC50: 56.2 µM
[5]
  GI50: 11 µM
  CC50: 49.2 µM
[6]
  GI50: 15.2 µM
  CC50: 76.8 µM
[7]
  GI50: 13.5 µM
  CC50: 51.3 µM
[8]
  GI50: 15.7 µM
  CC50: 54 µM
[9]
  GI50: 17.5 µM
  CC50: 55.9 µM
[10]
  GI50: 17.4 µM
  CC50: 62.9 µM
[11]
  GI50: 17.5 µM
  CC50: 55.9 µM
[12]
  GI50: 22.4 µM
  CC50: > 100 µM
[13]
  GI50: 17.3 µM
  CC50: 56.6 µM
[14]
  GI50: 17.2 µM
  CC50: 68.9 µM
[15]
  GI50: 16.7 µM
  CC50: 58.4 µM
[16]
  GI50: 7.7 µM
  CC50: 64.7 µM
[17]
  GI50: 15.8 µM
  CC50: 61.7 µM
[18]
  GI50: 7.7 µM
  CC50: 55.4 µM
[19]
  GI50: 18 µM
  CC50: 65.9 µM
[20]
  GI50: 15.9 µM
  CC50: 60.9 µM
[21]
  GI50: 16.8 µM
  CC50: 57 µM
[22]; [31]
  viability at 20 µM: 78%
[23]
  GI50: 15.5 µM
[23]; read-out: Median Lethal Concentration (LC50)
  CC50: 53.7 µM
[24]
  GI50: 14.9 µM
  CC50: 53.3 µM
[25]
  GI50: 19.8 µM
  CC50: > 100 µM
[26]
  GI50: 17.4 µM
  CC50: 55.9 µM
[27]
  GI50: 15.2 µM
  CC50: 54.4 µM
[28]
  GI50: 15.7 µM
  CC50: 54 µM
[29]
  GI50: 17 µM
  CC50: 86.4 µM
